Residues, ends and D or L forms follow the SMILES beside them.
What was measured:
transgenic SOD mice = assay: Effect of NAALADase inhibitor on onset of clinical disease, transgenic mice model of FALS; format: in vivo; conditions: for Disease onset for compound treated mice: 50 mg/kg, from one month old
Protocol: The effect of NAALADase inhibitors on the onset of ALS was tested using the transgenic mice model of familial amyotrophic lateral sclerosis (FALS), which is detailed in Gurney, M., Annals of Neurology (1996) 39:147-157, and otherwise well known in the art. One month old transgenic SOD mice were treated with daily intraperitoneal injections of a vehicle (50 mM HEPES-buffered saline) or a NAALADase inhibitor (50 mg/kg 2-[[(2,3,4,5,6-pentafluorobenzyl)hydroxyphosphinyl]methyl]-pentanedioic acid (“Compound A” )). Clinical symptoms of the mice were monitored daily. The onset of clinical disease was scored by examining each mouse for its shaking of limbs when suspended in the air by its tail, cross spread of spinal reflexes, hindlimb paralysis, body weight and wheel running activity.

NAALADase = NAALADase (Rattus norvegicus, UniProt P70627); conditions: NAAG as substrate of NAALADase; cited from earlier work
Chain of NAALADase (P70627 whole entry): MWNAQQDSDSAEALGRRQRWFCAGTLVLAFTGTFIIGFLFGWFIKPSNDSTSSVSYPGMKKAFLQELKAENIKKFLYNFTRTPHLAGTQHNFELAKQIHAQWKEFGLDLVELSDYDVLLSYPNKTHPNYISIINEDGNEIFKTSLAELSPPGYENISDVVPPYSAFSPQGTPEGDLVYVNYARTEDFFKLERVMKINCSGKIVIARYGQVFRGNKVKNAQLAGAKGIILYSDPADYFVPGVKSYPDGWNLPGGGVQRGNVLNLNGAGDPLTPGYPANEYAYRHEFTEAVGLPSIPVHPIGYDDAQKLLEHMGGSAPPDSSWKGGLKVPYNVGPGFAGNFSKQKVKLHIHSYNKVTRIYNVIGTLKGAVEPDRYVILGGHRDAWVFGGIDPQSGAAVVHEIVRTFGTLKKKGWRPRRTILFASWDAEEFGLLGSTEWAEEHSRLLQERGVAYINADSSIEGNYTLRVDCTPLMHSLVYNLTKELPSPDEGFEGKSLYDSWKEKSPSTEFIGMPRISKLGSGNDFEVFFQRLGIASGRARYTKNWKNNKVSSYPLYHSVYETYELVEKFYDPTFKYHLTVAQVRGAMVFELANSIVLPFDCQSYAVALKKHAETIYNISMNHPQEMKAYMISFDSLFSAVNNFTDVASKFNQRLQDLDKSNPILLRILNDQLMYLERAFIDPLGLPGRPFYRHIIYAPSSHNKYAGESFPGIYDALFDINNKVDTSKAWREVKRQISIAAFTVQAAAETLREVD

## O=C(O)CCC(CCCS)C(=O)O (centres unmarked) [Compound B, 2-(3-sulfanylpropyl)pentanedioic acid]
Transgenic SOD mice; Study 1
  Difference in disease onset, compound treated vs vehicle treated mice: 32
Transgenic SOD mice; Study 1, daily intraperitoneal injections
  Disease onset for compound treated mice: 221 days of age
Transgenic SOD mice; Study 2
  Difference in disease onset, compound treated vs vehicle treated mice: 25
Transgenic SOD mice; Study 2, daily intraperitoneal injections
  Disease onset for compound treated mice: 166 days of age

## CC(=O)N[C@@H](CC(=O)O)C(=O)N[C@@H](CCC(=O)O)C(=O)O [NAAG, N-acetyl-aspartyl-glutamate] (Ac-Asp-Glu-OH)
NAALADase
  Km: 0.54 µM

Source: patent US20020013295A1, “Naaladase inhibitors for treating amyotrophic lateral sclerosis” (priority 2000, published 2002)
